The term IC50 denotes the concentration needed to halve the response being measured. In general, inhibition refers to the change of the read-out against control, counted positive when it falls.

The record followed here is US8263596B2, “Kinase inhibitors and method of treating cancer” (University Health Network, priority 2010, dated 2012).

Read-outs that look alike come from different tables or passages of the source. Some results are limits rather than exact numbers.

Assay [1] addresses T1, Aurora A (Homo sapiens, UniProt O14965).
T1 sequence (O14965 1-403): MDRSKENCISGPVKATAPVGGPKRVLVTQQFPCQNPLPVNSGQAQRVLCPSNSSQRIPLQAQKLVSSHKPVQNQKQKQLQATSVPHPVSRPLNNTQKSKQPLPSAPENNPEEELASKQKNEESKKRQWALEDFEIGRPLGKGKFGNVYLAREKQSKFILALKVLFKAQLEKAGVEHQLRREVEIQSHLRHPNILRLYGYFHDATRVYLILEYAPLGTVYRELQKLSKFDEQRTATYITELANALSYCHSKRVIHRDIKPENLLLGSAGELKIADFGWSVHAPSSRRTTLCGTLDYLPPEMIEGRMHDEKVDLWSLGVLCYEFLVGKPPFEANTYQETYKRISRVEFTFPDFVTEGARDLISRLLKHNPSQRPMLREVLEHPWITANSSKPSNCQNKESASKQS
In words: Aurora A inhibition assay (Z-Lyte). The assay is classed as biochemical.

In assay [2] the target is T2, human PLK4 (Homo sapiens, UniProt O00444).
T2 construct: amino terminal GST fusion of residues 1-391 of human PLK4; made in house; host or cells: E. coli
T2 sequence (O00444 1-391): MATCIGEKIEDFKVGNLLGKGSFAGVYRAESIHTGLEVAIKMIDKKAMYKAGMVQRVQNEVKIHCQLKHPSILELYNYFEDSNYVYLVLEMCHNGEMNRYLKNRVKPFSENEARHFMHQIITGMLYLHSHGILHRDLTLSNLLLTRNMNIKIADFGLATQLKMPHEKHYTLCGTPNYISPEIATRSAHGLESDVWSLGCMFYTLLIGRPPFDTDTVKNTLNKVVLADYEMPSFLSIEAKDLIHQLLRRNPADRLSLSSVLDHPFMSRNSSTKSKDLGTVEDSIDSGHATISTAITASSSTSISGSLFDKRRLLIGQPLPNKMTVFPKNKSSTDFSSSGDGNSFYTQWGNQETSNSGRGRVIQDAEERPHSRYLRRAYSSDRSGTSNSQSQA
Description: PLK4 inhibition assay (indirect ELISA). The assay is classed as biochemical. On the technique in general: In an ELISA, binding on a coated surface is turned into a signal by an enzyme label.
Description: PLK4 activity was measured using an indirect ELISA detection system. […] The colourimetric reaction was allowed to continue for 5 minutes, followed by addition of stop solution (0.5 N sulphuric acid), and quantified by detection at 450 nm with either a monochromatic or filter based plate reader (Molecular Devices M5 or Beckman DTX880, respectively).
Compounds were pre-incubated in the presence of enzyme for 15 minutes prior to addition of ATP and the activity remaining quantified using the above described activity assay. […] The IC50 value was determined using a non-linear 4 point logistic curve fit (XLfit4, IDBS) with the formula; (A+(B/(1+((x/C)^D)))), where A=background value, B=range, C=inflection point, D=curve fit parameter.

Assay [3] addresses Aurora B (Homo sapiens, UniProt Q96GD4). Description: Aurora B inhibition assay (Z-Lyte). The settings on record: read-out: IC50 Ranges Aurora B. It is filed as biochemical.
Description: Aurora B inhibition was determined using the Z-Lyte assay kit from Invitrogen. […] The % inhibition values were determined according to the manufacturer's directions and IC50 values were obtained using a non-linear 4 point logistic curve fit (XLfit4, IDBS)
The target in assay [4] is T3, FLT3 (Homo sapiens, UniProt P36888).
T3 construct: purchased Invitrogen PV3182
T3 sequence (P36888 27-993): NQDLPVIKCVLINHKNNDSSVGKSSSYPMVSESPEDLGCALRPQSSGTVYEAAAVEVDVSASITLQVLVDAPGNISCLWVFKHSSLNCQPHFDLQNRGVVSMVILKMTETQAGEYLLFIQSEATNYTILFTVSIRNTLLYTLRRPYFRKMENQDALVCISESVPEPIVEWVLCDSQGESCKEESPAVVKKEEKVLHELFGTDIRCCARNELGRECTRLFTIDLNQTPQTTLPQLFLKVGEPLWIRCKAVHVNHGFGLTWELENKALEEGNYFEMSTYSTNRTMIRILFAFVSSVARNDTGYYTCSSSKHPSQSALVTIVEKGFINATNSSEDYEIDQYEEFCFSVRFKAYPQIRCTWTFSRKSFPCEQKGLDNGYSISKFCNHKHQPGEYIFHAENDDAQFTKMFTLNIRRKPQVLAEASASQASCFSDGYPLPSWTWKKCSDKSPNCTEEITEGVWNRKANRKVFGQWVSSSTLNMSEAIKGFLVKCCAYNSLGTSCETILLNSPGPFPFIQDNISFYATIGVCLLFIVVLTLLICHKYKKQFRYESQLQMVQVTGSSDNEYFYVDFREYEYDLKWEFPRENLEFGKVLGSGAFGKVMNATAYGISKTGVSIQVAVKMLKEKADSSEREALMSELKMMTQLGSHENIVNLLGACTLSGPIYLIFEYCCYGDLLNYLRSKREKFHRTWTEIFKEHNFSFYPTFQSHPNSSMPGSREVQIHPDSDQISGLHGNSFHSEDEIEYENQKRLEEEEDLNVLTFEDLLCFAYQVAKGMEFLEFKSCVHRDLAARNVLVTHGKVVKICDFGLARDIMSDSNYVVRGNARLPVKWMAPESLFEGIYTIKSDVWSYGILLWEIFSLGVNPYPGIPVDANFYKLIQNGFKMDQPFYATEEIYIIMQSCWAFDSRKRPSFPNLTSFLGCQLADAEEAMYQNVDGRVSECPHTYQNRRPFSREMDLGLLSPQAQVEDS
Description: FLT3 inhibition assay (Z-Lyte). It is filed as biochemical. Conditions: read-out: IC50 Ranges Flt3.
Description: The enzymatic activity of FLT3 was determined using the Z-Lyte assay kit from Invitrogen (Invitrogen cat #PV3191). […] The % inhibition values were determined according to the manufacturer's directions and IC50 values were obtained using a non-linear 4 point logistic curve fit (XLfit4, IDBS).

In assay [5] the test system is HUV-EC-C cells. In words: In vitro angiogenesis assay (tube formation). It is filed as cell-based. The settings on record: 4 hr. As for the experimental part:
Activity against these RTKs can result in antiangiogenic activity which is associated with slowed tumor growth and/or tumor regression. To measure the antiangiogenic effects of compounds of the invention, selected examples were tested in an angiogenesis assay as described below.
HUV-EC-C cells were obtained from the American Type Culture Collection (ATCC, CRL-1730), and were used at early passage for the assay. The in vitro Angiogenesis Assay Kit (Chemicon) was used according to the manufacturer's recommendation. An ice-cold mixture of ECMatrix was transferred into a precooled 96-well plate. After the matrix solution had solidified (>1 hr incubation at 37° C.), 8,000 cells were mixed with the appropriate inhibitor concentration (in 100 microlitres EGM-2) and plated into each well. The clinical antiangiogenic, Sutent was used as a positive control in comparison to a compound of the invention, A13. After incubation at 37° C. for 4 hr, tube formation was inspected. Two methods, pattern recognition and branch point counting, were used to quantify the progression of angiogenesis and expressed as a percentage of the control tube count (FIGS. 1 and 2).

Aurora B, sequence (Q96GD4 whole entry): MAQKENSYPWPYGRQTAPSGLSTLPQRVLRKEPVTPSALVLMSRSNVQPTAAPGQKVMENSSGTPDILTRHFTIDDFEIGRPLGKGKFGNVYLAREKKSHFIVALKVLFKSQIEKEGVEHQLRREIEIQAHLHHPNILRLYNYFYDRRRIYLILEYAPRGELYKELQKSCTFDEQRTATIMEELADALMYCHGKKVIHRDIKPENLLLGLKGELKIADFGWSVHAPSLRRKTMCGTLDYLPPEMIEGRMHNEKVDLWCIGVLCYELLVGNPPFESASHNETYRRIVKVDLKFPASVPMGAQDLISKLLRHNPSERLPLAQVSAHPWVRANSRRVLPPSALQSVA

In the case of `COc1ccc2c(c1)[C@]1(C[C@H]1c1ccc3c(/C=C/c4cccc(CN5CCOCC5)c4)n[nH]c3c1)C(=O)N2` [Example A132, (1R,2S)-5′-methoxy-2-(3-(3-(morpholinomethyl)styryl)-1H-indazol-6-yl)spiro[cyclopropane-1,3′-indolin]-2′-one 2,2,2-trifluoroacetate], the half-maximal inhibitory concentration (IC50) in assay [1] was 100 to 1000 nM.
As for `COc1ccc2c(c1)[C@]1(C[C@H]1c1ccc3c(-c4cccc(CN5CCOCC5)c4)n[nH]c3c1)C(=O)N2` (relative stereo) [Example A136, (1R*,2S*)-5′-methoxy-2-(3-(3-(morpholinomethyl)phenyl)-1H-indazol-6-yl)spiro[cyclopropane-1,3′-indolin]-2′-one 2,2,2-trifluoroacetate], the half-inhibitory concentration (IC50) was less than 100 nM in assay [2] (read-out: IC50 Ranges PLK4), less than 100 nM in assay [3] and greater than 1000 nM in assay [4].
As to `CN1CCN(c2ccc(-c3n[nH]c4cc([C@@H]5C[C@@]56C(=O)Nc5ccccc56)ccc34)cn2)CC1` (racemic) [Example A18, (1R*,2S*)-2-(3-(6-(4-Methylpiperazin-1-yl)pyridin-3-yl)-1H-indazol-6-yl)spiro[cyclopropane-1,3′-indolin]-2′-one], the IC50 is less than 100 nM in assay [2], 100 to 1000 nM in assay [1] and less than 100 nM in assay [3].
In the case of `CN(C)Cc1ccc(/C=C/c2n[nH]c3cc([C@@H]4C[C@@]45C(=O)Nc4ccccc45)ccc23)cc1` (relative stereo) [Example A23, (1R*,2S*)-(E)-2-(3-(4-((dimethylamino)methyl)styryl)-1H-indazol-6-yl)spiro[cyclopropane-1,3′-indolin]-2′-one 2,2,2-trifluoroacetate], the “antiangiogenic effect (tube formation)” value in assay [5] was “anti-agiogenic effects at submicromolar concentrations”.
Regarding `CCc1ccc2c(c1)[C@]1(C[C@H]1c1ccc3c(-c4ccc(N5CCN(C)CC5)cc4)n[nH]c3c1)C(=O)N2` (relative stereo) [Example A142, (1R*,2S*)-5′-ethyl-2-(3-(4-(4-methylpiperazin-1-yl)phenyl)-1H-indazol-6-yl)spiro[cyclopropane-1,3′-indolin]-2′-one 2,2,2-trifluoroacetate], the inhibition at 1 µM in assay [1] is less than 50%.
As to `COc1ccc2c(c1)[C@]1(C[C@H]1c1ccc3c(/C=C/c4ccc(C(=O)N5CCN(C)CC5)cc4)n[nH]c3c1)C(=O)N2` (relative stereo) [Example A179, (1R*,2S*)-(E)-5′-methoxy-2-(3-(4-(4-methylpiperazine-1-carbonyl)styryl)-1H-indazol-6-yl)spiro[cyclopropane-1,3′-indolin]-2′-one 2,2,2-trifluoroacetate], the 50% inhibitory concentration (IC50) in assay [2] (read-out: IC50 Ranges PLK4), in assay [1] and in assay [3] was less than 100 nM in each case.
In the case of `COc1ccc2c(c1)[C@]1(C[C@H]1c1ccc3c(-c4ccc(N5CCN(C)CC5)nc4)n[nH]c3c1)C(=O)N2` (relative stereo) [Example A13, (1R*,2S*)-5′-Methoxy-2-(3-(6-(4-methylpiperazin-1-yl)pyridin-3-yl)-1H-indazol-6-yl)spiro[cyclopropane-1,3′-indolin]-2′-one], the “antiangiogenic effect (tube formation)” value in assay [5] is “anti-agiogenic effects at submicromolar concentrations”.
The same measure, in the same setting: in the case of `O=C1Nc2ccccc2[C@]12C[C@H]2c1ccc2c(/C=C/c3ccncc3)n[nH]c2c1` (relative stereo) [Example A22, (1R*,2S*)-(E)-2-(3-(2-(pyridin-4-yl)vinyl)-1H-indazol-6-yl)spiro-[cyclo-propane-1,3′-indolin]-2′-one] it was “anti-agiogenic effects at submicromolar concentrations”.
For the compound `COc1ccc2c(c1)[C@]1(C[C@H]1c1ccc3c(/C=C/c4cccc(CN(C)C)c4)n[nH]c3c1)C(=O)N2` [Example A134, (1R,2S)-2-(3-(3-((dimethylamino)methyl)styryl)-1H-indazol-6-yl)-5′-methoxyspiro[cyclopropane-1,3′-indolin]-2′-one 2,2,2-trifluoroacetate], in assay [1], the half-maximal inhibitory concentration (IC50) was 100 to 1000 nM.
On the same count and under the same terms, in the case of `COCCN1C(=O)[C@@]2(C[C@H]2c2ccc3c(/C=C/c4ccc(CN(C)C)cc4)n[nH]c3c2)c2ccccc21` (relative stereo) [Example A180, (1R*,2S*)-(E)-2-(3-(4-((dimethylamino)methyl)styryl)-1H-indazol-6-yl)-1′-(2-methoxyethyl)spiro[cyclopropane-1,3′-indolin]-2′-one 2,2,2-trifluoroacetate] it was less than 100 nM.
